From the PolyMetriX glass transition set come the findings set out here.

SMILES strings stand for the structures.

For the molecule `*/C(C#N)=C/c1cc(/C=C(\C#N)c2ccc3c(c2)C(CCCCCCCC)(CCCCCCCC)c2cc(*)ccc2-3)cc(N(c2ccccc2)c2ccccc2)c1` (repeat unit), the glass transition temperature is 136.00 °C.

Regarding `*/C=C/c1cc(OCC(CC)CCCC)c(/C=C/c2ccc3c4ccc(*)cc4n(CC(CC)CCCC)c3c2)cc1OCC(CC)CCCC` (repeat unit), the glass transition temperature was 61.00 °C.

The molecule `*/C=C/c1cc(OCCCCCCCCCCCCCCCC)c(/C=C/c2ccc(*)cc2)cc1OCCCCCCCCCCCCCCCC` (repeat unit) had a glass transition temperature of 33.00 °C.

Consider `*/C=C/c1ccc(*)c(-c2c(OCC(CC)CCCC)ccc3cc(-c4ccccc4)ccc23)c1` (repeat unit), for which the glass transition temperature was determined as 141.00 °C.

As for `*/C=C/c1ccc(*)c(-c2c(OCC(CC)CCCC)ccc3ccccc23)c1` (repeat unit), the glass transition temperature came to 118.00 °C.

On to `*/C=C/c1ccc(*)c(-c2cc(OCCC(C)C)c(OCCC(C)C)cc2-c2ccccc2)c1` (repeat unit), for which the glass transition temperature was 164.00 °C.

In turn, `*/C=C/c1ccc(*)c(OCc2cc(OCCC(C)CCCC(C)C)cc(OCC(CC)CCCC)c2)c1` (repeat unit) had a glass transition temperature of 227.00 °C.

On to `*/C=C/c1ccc(/C=C/c2ccc3c(c2)C(CCCCCCOc2ccc4ccc(=O)oc4c2)(CCCCCCOc2ccc4ccc(=O)oc4c2)c2cc(*)ccc2-3)cc1` (repeat unit), for which the glass transition temperature came to 104.00 °C.

For the molecule `*/C=C/c1ccc(/C=C/c2ccc3c(c2)Sc2cc(*)ccc2N3c2ccc(OCCCCCCCCCCCC)cc2)cc1` (repeat unit), the glass transition temperature is 167.00 °C.

In turn, `*/C=C/c1ccc2c(c1)C(CCCCCCOc1ccc3ccc(=O)oc3c1)(CCCCCCOc1ccc3ccc(=O)oc3c1)c1cc(/C=C/c3ccc4c(c3)C(CCCCCC)(CCCCCC)c3cc(*)ccc3-4)ccc1-2` (repeat unit) displayed a glass transition temperature of 115.00 °C.

Consider `*/C=C/c1cccc(/C=C/[Si](C)(C)c2ccc([Si](*)(C)C)cc2)c1` (repeat unit), for which the glass transition temperature was found to be 38.10 °C.

For `*/C=C/c1nc(/C=C/c2ccc3c(c2)c2cc(*)ccc2n3CCCCCC)c(C#N)c(/C=C/c2ccc(N(c3ccccc3)c3ccccc3)cc2)c1C#N` (repeat unit), the glass transition temperature came out at 134.00 °C.

In turn, `*/C=C/c1sc(/C=C/c2ccc3c4ccc(*)cc4n(CC(CC)CCCC)c3c2)c(CC(CC)CCCC)c1CC(CC)CCCC` (repeat unit) came in with a glass transition temperature of 60.00 °C.

`*CC(C)(C)C1C(=O)N(CCCC)C(=O)C1*` (repeat unit): the glass transition temperature came out at 80.00 °C.

As for `*CC(C)(C)O*` (repeat unit), the glass transition temperature was determined as 40.50 °C.

In turn, `*CC(C)(C)S*` (repeat unit) yielded a glass transition temperature of -14.00 °C.

In the case of `*CC(CC(*)(C#N)C#N)c1ccc(CCl)cc1` (repeat unit), the glass transition temperature came to 180.00 °C.

On to `*CC(CC(*)(C#N)C#N)c1ccc(Cl)cc1` (repeat unit), for which the glass transition temperature was 180.00 °C.

`*CC(CCCCCCCCCC)O*` (repeat unit) yielded a glass transition temperature of -41.00 °C.

Consider `*CC(CN1C(=O)C2C3C=CC(C3)C2C1=O)O*` (repeat unit), for which the glass transition temperature was 87.50 °C.

With `*CC(COC(C)C)O*` (repeat unit), the glass transition temperature was -67.00 °C.

As for `*CC(COCC=C)S*` (repeat unit), the glass transition temperature was -59.00 °C.

`*CC(COCCCCCC)O*` (repeat unit) returned a glass transition temperature of -85.50 °C.

For `*CC(COCCOCCOC)O*` (repeat unit), the glass transition temperature was -57.00 °C.

In the case of `*CC(COCOCC(C)([N+](=O)[O-])[N+](=O)[O-])O*` (repeat unit), the glass transition temperature was -15.00 °C.

For `*CC(CS(=O)(=O)CC)O*` (repeat unit), the glass transition temperature was 57.00 °C.

In turn, `*CC(CS(=O)(=O)CCC)O*` (repeat unit) yielded a glass transition temperature of 43.00 °C.

As to `*CC(CSCCCC)O*` (repeat unit), the glass transition temperature was -65.00 °C.

`*CC(CSCCCCC)O*` (repeat unit) displayed a glass transition temperature of -68.00 °C.

`*CC(F)(F)C1(F)CC(C(O)(C(F)(F)F)C(F)(F)F)CC1*` (repeat unit) had a glass transition temperature of 118.00 °C.

In the case of `*CC(O)COc1ccc(C(C)CC(C)(C)c2ccc(O*)cc2)cc1` (repeat unit), the glass transition temperature was found to be 75.00 °C.

For the molecule `*CC(OC)C(C(=O)O)C(*)C(=O)O` (repeat unit), the glass transition temperature came to 144.00 °C.

Regarding `*CC(OCC)C(C(=O)OC)C(*)C(=O)OC` (repeat unit), the glass transition temperature was found to be 50.00 °C.

For `*CC(OCC)C(C)(C(=O)OC)C(*)(C)C(=O)OC` (repeat unit), the glass transition temperature is 131.00 °C.

The molecule `*CCCCCCCCCCCCCCCCCCCCOC(=O)CC(=O)O*` (repeat unit) returned a glass transition temperature of -35.10 °C.

`*CCCCCCCCCn1c2ccccc2c2cc(/C=C(\C#N)C(=O)OCCCCCCOC(=O)/C(C#N)=C/c3ccc4c(c3)c3ccccc3n4*)ccc21` (repeat unit): the glass transition temperature is 96.40 °C.

Molecule `*CCCCCCNC(=O)CC(=O)N*` (repeat unit) registered a glass transition temperature of 50.00 °C.

As for `*CCCCCCNC(=O)CCc1ccc(C(C)CC(=O)N*)cc1` (repeat unit), the glass transition temperature was found to be 77.00 °C.

Molecule `*CCCCOCCCCOCCCCOC(=O)c1ccc(/N=C/c2cc(OCCC(C)CCCC(C)C)c(/C=N/c3ccc(C(=O)O*)cc3)cc2OCCC(C)CCCC(C)C)cc1` (repeat unit) displayed a glass transition temperature of -4.80 °C.

`*CCOC(=O)CC(C)O*` (repeat unit) came in with a glass transition temperature of -37.10 °C.

Molecule `*CCOCCOc1ccc(/C=C(\C)c2ccc(O*)cc2)cc1` (repeat unit) came in with a glass transition temperature of 39.00 °C.

Take `*Cc1ccc(CNC(=O)CC(C)(C)CC(C)C(=O)N*)cc1` (repeat unit): the glass transition temperature amounted to 125.00 °C.

Turning to `*Nc1ccc(NC(=O)Cc2cc(C)c(CC(*)=O)cc2C)cc1` (repeat unit), the glass transition temperature is 175.00 °C.

As for `*OC(C)(CC(*)=O)C(F)(F)F` (repeat unit), the glass transition temperature worked out at 27.00 °C.

Take `*OC(CCc1ccccc1)CC(*)=O` (repeat unit): the glass transition temperature is 18.00 °C.

For the molecule `*Oc1ccc(S(=O)(=O)c2ccc(Oc3ccc(/C=C4\CCCC/C(=C\c5ccc(*)cc5)C4=O)cc3)cc2)cc1` (repeat unit), the glass transition temperature amounted to 186.00 °C.

Regarding `*Oc1ccc(S(=O)(=O)c2ccc(Oc3ccc(C4(c5ccc(Oc6ccc(S(=O)(=O)c7ccc(Oc8ccc(/C=C9\CC/C(=C\c%10ccc(*)cc%10)C9=O)cc8)cc7)cc6)cc5)CCCC4)cc3)cc2)cc1` (repeat unit), the glass transition temperature came out at 240.00 °C.

On to `*c1cc(C)c(/N=C/c2ccc(OCc3ccc(COc4ccc(/C=N/c5cc(C)c(N6C(=O)c7ccc8c9ccc%10c%11c(ccc(c%12ccc(c7c8%12)C6=O)c%119)C(=O)N(*)C%10=O)cc5C)cc4OC)cc3)c(OC)c2)cc1C` (repeat unit), for which the glass transition temperature stood at 145.00 °C.

Molecule `*c1ccc(/C=C/c2cc(OCC(CC)CCCC)c(/C=C/c3ccc(N(*)c4ccccc4)cc3)cc2OC)cc1` (repeat unit) registered a glass transition temperature of 147.00 °C.
